Consider three molecules from patent publication US6653074B1, “Methods for identifying agents which affect cellular morphology, locomotion and death” (Fox Chase Cancer Center, priority 1995, dated 2003).

One data set deals with MCF-7 cells. As to the kind of experiment: Induction of apoptosis by TNF-α in MCF-7 cells, Western blot of caspase cleavage products and cell death. It counts as cell-based, human. Particulars: 48 hours. How it is done:
Induction of apoptosis. MCF-7 cells were plated and grown for 48 hours reaching a cell density of 70% prior to TNF-α addition. Media was replaced with fresh media supplemented with 100 ng/ml TNF-α. TNF-α treatment of stable cell lines was carried out by plating, cells directly into fresh DMEM plus 10% fetal bovine serum, with or without addition of tetracycline as indicated, containing 100 ng/ml TNF-α. Cells floating in the media were collected by centrifugation (1,200 rpm, 5 min) and extracted in combination with attached cells at the time points indicated, as described below. WeHI 231 cells were plated at a density of 5×10^4 cells/ml and treated with 1 μg/ml of α-IgM antibodies in complete media. Cells were collected by centrifugation and lysed as stated below.
Lysates were made as previously described (39; 41) in A-PTY buffer (50 mM HEPES, pH 7.5, 50 mM NaCl, 5 mM EDTA, 1% Triton X-100, 50 mM NaF, 10 mM Na4P2O7 and supplemented each extraction with 1 mM phenylmethylsulfonylfluoride, 0.01 mg/ml aprotinin and 0.01 mg/ml leupeptin). For adherent cultures, floating cells were pooled with the adherent cells prior to lysis. The cell pellet was then lysed in combination with lysates from the attached cells. […] Detection was via chemiluminescence as described (Law et al. (1996) Mol. Cell. Biol. 16: 3327-3337).

In the next data set the test system is caspase 3. As to the kind of experiment: Caspase activity assay: Ac-DEVD-pNA cleavage by lysates of HEF1-expressing MCF-7 cells. Particulars: z-DEVD-fmk 0.5 μM; Ac-DEVD-pNA 250 μM; lysates of induced HEF1 cells; 24 hr; 405 nm. Format: biochemical, human. How it is done: HEF1 expression and caspase activity. Stable cell lines containing parental tetracycline-regulatable vector with or without the full length HEF1 cDNA were generated in MCF-7 cells (Example 2). These were plated at a density of approximately 1×10^6 cells per 100 mm plate into fresh DMEM plus 10% fetal bovine serum in the absence of tetracycline and other selective antibiotics (induced) or in the presence of 1 μg/ml tetracycline (uninduced). Floating and attached cells were combined and extracted in caspase assay buffer (50 mM HEPES, pH 7.4, 100 mM NaCl, 0.1% CHAPS, 10 mM DTT, 1 mM EDTA, and 10% glycerol). Protein content of extracts was determined using the Bio-Rad protein assay as per the manufacturer's instructions (Bio-Rad, Hercules, Calif.). Caspase assays were performed as previously described (DiPietrantonio et al. (1999) Biochem Biophys Res Commun 255:477-82). […] Triplicate samples were incubated at room temperature and the release of pNA product was monitored at 405 nm a microtiter plate reader (Multiskan Plus, Labsystems, Helsinki. Finland). Initial readings were taken at the start of the incubation (T0) and final readings were taken at the completion of the reaction at 24 hr (T1). The change in absorbance over time was determined by subtracting T0 from T1 for each sample.

Data set [1] deals with the molecule itself. Briefly: yeast two-hybrid analysis. From the text: EGY48 yeast (Gyuris et al., 1993, supra) were transformed by standard methods with plasmids expressing LexA-fusions, activation-domain fusions, or both, together with the LexA operator-LacZ reporter SH18-34 (Gyuris et al., 1993, supra). For all fusion proteins, synthesis of a fusion protein of the correct length in yeast was confirmed by Western blot assays of yeast extracts (Samson et al., Cell 57: 1045–1052, 1989) using polyclonal antiserum specific for LexA (Brent and Ptashne, Nature 312: 612–615, 1984) or for hemagglutinin (Babco, Inc), as appropriate. Activation of the LacZ reporter was determined as previously described (Brent and Ptashne, Cell 43: 729–736, 1985). Beta-galactosidase assays were performed on three independent colonies, on three separate occasions, and values for particular plasmid combinations varied less than 25%. Activation of the LEU2 reporter was determined by observing the colony forming ability of yeast plated on complete minimal medium lacking leucine. The LexA-PRD/HD expressing plasmid has been described (Golemis and Brent, Mol. Cell Biol. 12: 3006–3014, 1992).
The possible functions for the novel carboxy-terminal domains were investigated further using two-hybrid analysis.

As for TNF-α, the “cell rounding and death, gross morphology” value in the data set with MCF-7 cells (TNF-α alone, uninduced cells) was “low level of cell rounding and death”. Moreover, in the data set with MCF-7 cells (TNF-α together with HEF1 induction), the cell death was about 100%. The PARP cleavage entry with MCF-7 cells (uninduced HEF1 cells and vector control MCF-7 cells, TNF-α) is reported as “detected”.

Turning to z-DEVD-fmk, the “activity towards the caspase 3 substrate Ac-DEVD-pNA in HEF1 expressing cells” value in the data set on caspase 3 was “potently blocked”.

B1: HEF1 carboxy-terminal domain (other)
chain: IMKQNKMQLEHHQLSQFQLLEQEITKPVENDISKWKPSQSLPTTNSGVSAQDRQLLCFYYDQCETHFISLLNAIDALFSCVSSAQPPRIFVAHSKFVILSAHKLVFIGDTLTRQVTAQDIRNKVMNSSNQLCEQLKTIVMATKMAALHYPSTTALQEMVHQVTDLSRNAQLFKRSLLEMATF
notes: Tested as a two-hybrid fusion; also called C-terminal effector domain; HEF1-Cterm182
Take B1: the binding result in data set [1] is “binds”.
